According to US4935435A, “Use of tetrazole derivatives” (May & Baker Limited, priority 1988, dated 1990):

Tests used:
[1] = tested on: collagen-induced arthritis in rats; test: collagen-induced arthritis in rats (joint size by electronic calipers, erosion and inflammation); assay type: in vivo, rat
Experimental: Joint sizes were measured periodically, for 70 days, by means of electronic calipers placed across the tibio-tarsal junction.

[2] = tested on: collagen-induced arthritis in rats; test: X-radiography of hind paws on day 71, collagen-induced arthritis in rats; assay type: in vivo; settings: rat hind paws; 71st day; oral 30 mg/kg per day; versus control
Experimental: On the 71st day the hind paws were examined by X-radiography. Joint damage was assessed according to five parameters and scored on an arbitrary scale of 0 to 5.

CC(=O)c1cc(F)cc(NC(=O)c2nnn[nH]2)c1O [compound A, 3'-Acetyl-5'-fluoro-2'-hydroxytetrazole-5-carboxanilide]
mean joint diameter (tibio-tarsal junction) over the 70 days ([1]; oral 30 mg/kg per day, 70 days, control animals increased from 7.6 mm to 8.1 mm): 7.7 mm | erosion and inflammation caused by collagen-induced arthritis ([1]; oral, 30 mg/kg body weight per day, compared with control animals): inhibited erosion and inflammation | joint damage by X-radiography, five parameters scored on an arbitrary scale of 0 to 5 [2]: For each of the five parameters the joints of the control animals were more severely damaged than those of the treated animals
